Test results: US9487504B2, “Imidazolyl analogs as syk inhibitors” (Merck Sharp & Dohme Corp., priority 2012, dated 2016)

biological target: T1, recombinant human GST-Syk (Homo sapiens, UniProt P43405); experiment: Homogeneous Time-Resolved Fluorescence (HTRF) assay for the recombinant human Syk enzyme; format: biochemical; conditions: ATP 25 μM, 10-dose titration, read-out: rhSYK Activity
T1 construct: purchased Carna Biosciences 08-176
Procedure: Syk inhibition may be determined using the following assay protocol:
Homogeneous Time-Resolved Fluorescence (HTRF) Assay for the Recombinant Human Syk Enzyme:
A recombinant GST-hSyk fusion protein was used to measure potency of compounds to inhibit human Syk activity. The recombinant human GST-Syk (Carna Biosciences #08-176) ([…]) was incubated with various concentrations of the inhibitor diluted in DMSO (0.1% final concentration) for 10 minutes at room temperature in 15 mM Tris-HCl (pH 7.5), 0.01% tween 20, 2 mM DTT in 384 well plate format. To initiate the reaction the biotinylated substrate peptide (250 nM final concentration) that contains the phosphorylation site for Syk was added with magnesium (5 mM final concentration) and ATP (25 μM final concentration). Final volume of the reaction was 10 μL. Phosphorylation of the peptide was allowed to proceed for 45 minutes at room temperature. To quench the reaction and detect the phosphorylated product, 2 nM of a Europium-anti-phosphotyrosine antibody (Perkin Elmer #AD0161) and 70 nM SA-APC (Perkin-Elmer #CR130-100) were added together in 15 mM Tris pH 7.5, 40 mM EDTA, 0.01% tween 20. Final volume of the quenching solution was 10 μL. The resulting HTRF signal was measured after 30 minutes on an EnVision (Perkin-Elmer) reader using a time-resolved fluorescence protocol. IC50 was determined following 10-dose titration (10 μM to 0.508 nM) and four parameter logistic curve fitting using the Merck Assay Data Analyzer. The rhSyk activity (IC50) is expressed as +++ (100 nM or less), ++ (between 100 and 1000 nM), + (between 1 and 10 μM).

Structure (SMILES)	IC50 [µM]
COc1ccnc(Nc2cc(C)cc(-n3cnc([C@]4(O)CC[C@@H](O)CC4)c3)c2)n1 [Example 39, cis-1-(1-{3-[(4-methoxypyrimidin-2-yl)amino]-5-methylphenyl}-1H-imidazol-4-yl)cyclohexane-1,4-diol]	≤ 0.1
Cc1cc(Nc2cc(C(C)(C)C)ccn2)nc(-n2cnc([C@]3(O)CC[C@@H](OC(=O)c4ccccc4)CC3)c2)c1 [Example 52, cis-4-(1-{6-[(4-tert-butylpyridin-2-yl)amino]-4-methylpyridin-2-yl}-1H-imidazol-4-yl)-4-hydroxycyclohexyl benzoate]	≤ 0.1
Cc1ccnc(Nc2cccc(-n3cnc(C(C)(C)O)c3)n2)c1 [Example 100, 2-(1-{6-[(4-methylpyridin-2-yl)amino]pyridin-2-yl}-1H-imidazol-4-yl)propan-2-ol]	0.1 to 1
COC(=O)CCc1cn(-c2cc(Nc3nccc(C(F)(F)F)n3)cc(N3CCOCC3)c2)cn1 [Example 106, Methyl 3-[1-(3-morpholin-4-yl-5-{[4-(trifluoromethyl)pyrimidin-2-yl]amino}-phenyl)-1H-imidazol-4-yl]propanoate]	≤ 0.1
CCOC(=O)C1CCC(O)(c2cn(-c3cc(C)cc(Nc4nccc(C(F)(F)F)n4)c3)cn2)CC1 (stereo not drawn) [Example 36, Ethyl trans-4-hydroxy-4-[1-(3-methyl-5-{[4-(trifluoromethyl)pyrimidin-2-yl]amino}phenyl)-1H-imidazol-4-yl]-cyclohexanecarboxylate]	≤ 0.1
Cc1cc(Nc2cc(C(F)(F)F)ccn2)nc(-n2cnc(CCC(=O)O)c2)c1 [Example 74, 3-[1-(4-methyl-6-{[4-(trifluoromethyl)-pyridin-2-yl]amino}-pyridin-2-yl)-1H-imidazol-4-yl]-propanoic acid]	0.1 to 1
CCOC(=O)C(C)(C)[C@H]1CC[C@](O)(c2cn(-c3cc(C)cc(Nc4cc(C(F)(F)F)ccn4)n3)cn2)CC1 [Example 23, Ethyl 2-{cis-4-hydroxy-4-[1-(4-methyl-6-{[4-(trifluoromethyl)pyridin-2-yl]amino}pyridin-2-yl)-1H-imidazol-4-yl]cyclohexyl}-2-methylpropanoate]	≤ 0.1
Cc1cc(Nc2nccc(C(F)(F)F)n2)cc(-n2cnc([C@]3(O)CC[C@@H](C(N)=O)CC3)c2)c1 [Example 34, cis-4-hydroxy-4-[1-(3-methyl-5-{[4-(trifluoromethyl)-pyrimidin-2-yl]amino}phenyl)-1H-imidazol-4-yl]-cyclohexanecarboxamide]	≤ 0.1
C=C(C)c1cn(-c2cc(C)cc(Nc3nccc(C(F)(F)F)n3)c2)cn1 [Example 112, N-{3-Methyl-5-[4-(prop-1-en-2-yl)-1H-imidazol-1-yl]phenyl}-4-(trifluoromethyl)pyrimidin-2-amine]	≤ 0.1
COc1ccnc(Nc2cc(C)cc(-n3cnc(C4(O)CCC(OC(=O)c5ccccc5)CC4)c3)c2)n1 (stereo not drawn) [Example 41, cis-4-hydroxy-4-(1-{3-[(4-methoxypyrimidin-2-yl)amino]-5-methylphenyl}-1H-imidazol-4-yl)cyclohexyl benzoate]	≤ 0.1
Cc1cc(Nc2nccc(C(F)(F)F)n2)cc(-n2cnc(C3=CCC(C)(C(=O)O)CC3)c2)c1 (racemic) [Example 21, 1-methyl-4-[1-(3-methyl-5-{[4-(trifluoromethyl)-pyrimidin-2-yl]amino}-phenyl)-1H-imidazol-4-yl]cyclohex-3-ene-1-carboxylic acid]	≤ 0.1
Cc1cc(Nc2nccc(C(F)(F)F)n2)cc(-n2cnc([C@]3(O)CC[C@@H](CC(=O)O)CC3)c2)c1 [Example 16, {cis-4-hydroxy-4-[1-(3-methyl-5-{[4-(trifluoromethyl)pyrimidin-2-yl]amino}phenyl)-1H-imidazol-4-yl]-cyclohexyl}acetic acid]	≤ 0.1

The remaining lines, values ahead:

IC50 [µM]	Structure (SMILES)
≤ 0.1	Cc1cc(Nc2nccc(C(F)(F)F)n2)cc(-n2cnc([C@@]3(O)CC[C@H](O)[C@@H](C)C3)c2)c1 [Example 55, (1R,3S,4S)-3-methyl-1-[1-(3-methyl-5-{[4-(trifluoromethyl)pyrimidin-2-yl]amino}phenyl)-1H-imidazol-4-yl]cyclohexane-1,4-diol]
≤ 0.1	Cc1cc(Nc2cc(C3CC3)ccn2)nc(-n2cnc([C@]3(O)CC[C@@H](O)CC3)c2)c1 [Example 45, cis-1-(1-{6-[(4-cyclopropylpyridin-2-yl)amino]-4-methylpyridin-2-yl}-1H-imidazol-4-yl)cyclohexane-1,4-diol]
≤ 0.1	Cc1cc(Nc2nccc(C(F)(F)F)n2)cc(-n2cnc([C@]3(O)CC[C@](C)(C(=O)O)CC3)c2)c1 [Example 20, trans-4-hydroxy-1-methyl-4-[1-(3-methyl-5-{[4-(trifluoromethyl)-pyrimidin-2-yl]amino)-phenyl)-1H-imidazol-4-yl]cyclohexanecarboxylic acid]
≤ 0.1	Cc1cc(Nc2nccc(C(F)(F)F)n2)cc(-n2cnc([C@]3(O)CC[C@H](CC(=O)O)CC3)c2)c1 [Example 15, {trans-4-hydroxy-4-[1-(3-methyl-5-{[4-(trifluoromethyl)pyrimidin-2-yl]amino}phenyl)-1H-imidazol-4-yl]-cyclohexyl}acetic acid]
≤ 0.1	Cc1cc(Nc2nccc(C(F)(F)F)n2)cc(-n2cnc([C@]3(O)CC[C@H](C(N)=O)CC3)c2)c1 [Example 33, trans-4-hydroxy-4-[1-(3-methyl-5-{[4-(trifluoro-methyl)pyrimidin-2-yl]amino}phenyl)-1H-imidazol-4-yl]-cyclohexanecarboxamide]
≤ 0.1	Cc1cc(Nc2nccc(C)n2)cc(-n2cnc(C(C)(O)[C@H]3CC[C@H](C(=O)O)CC3)c2)c1 (relative stereo) [Example 9, trans-4-[1-hydroxy-1-(1-{3-methyl-5-[(4-methyl-pyrimidin-2-yl)amino]-phenyl}-1H-imidazol-4-yl)ethyl]cyclohexane-carboxylic acid]
≤ 0.1	Cc1ccnc(Nc2cc(C)cc(-n3cnc(C(O)(C4CC4)C4CC4)c3)n2)c1 [Example 86, dicyclopropyl(1-{4-methyl-6-[(4-methylpyridin-2-yl)amino]pyridin-2-yl}-1H-imidazol-4-yl)methanol]
≤ 0.1	Cc1cc(Nc2nccc(C(F)(F)F)n2)cc(-n2cnc([C@H]3CC[C@H](C(=O)O)CC3)c2)c1 [2 (trans), Trans-4-[1-(3-methyl-5-{[4-(trifluoromethyl)pyrimidin-2-yl]amino}phenyl)-1H-imidazol-4-yl]cyclohexanecarboxylic acid]
0.1 to 1	Cc1cc(Nc2ncc(F)c(C)n2)cc(-n2cnc([C@]3(O)CC[C@@H](OC(=O)c4ccccc4)CC3)c2)c1 [Example 58, cis-4-(1-{3-[(5-fluoro-4-methylpyrimidin-2-yl)amino]-5-methylphenyl}-1H-imidazol-4-yl)-4-hydroxycyclohexyl benzoate]
0.1 to 1	Cc1cc(Nc2ncc(F)c(C3CC3)n2)cc(-n2cnc([C@]3(O)CC[C@@H](OC(=O)c4ccccc4)CC3)c2)c1 [Example 60, cis-4-(1-{3-[(4-cyclopropyl-5-fluoropyrimidin-2-yl)amino]-5-methylphenyl}-1H-imidazol-4-yl)-4-hydroxycyclohexyl benzoate]
≤ 0.1	COC(=O)c1cn(-c2cc(C)cc(Nc3cc(C(F)(F)F)ccn3)n2)cn1 [Example 93, Methyl 1-(4-methyl-6-{[4-(trifluoromethyl)-pyridin-2-yl]amino}-pyridin-2-yl)-1H-imidazole-4-carboxylate]
≤ 0.1	CNC(=O)[C@H]1CC[C@](O)(c2cn(-c3cc(C)cc(Nc4nccc(C(F)(F)F)n4)c3)cn2)CC1 [Example 1, Cis-4-hydroxy-N-methyl-4-[1-(3-methyl-5-{[4-(trifluoromethyl)pyrimidin-2-yl]amino}phenyl)-1H-imidazol-4-yl]cyclohexanecarboxamide]
≤ 0.1	CC(C)(O)c1cn(-c2cc(Cl)cc(Nc3cc(C(F)(F)F)ccn3)n2)cn1 [Example 90, 2-[1-(4-chloro-6-{[4-(trifluoromethyl)pyridin-2-yl]amino}pyridin-2-yl)-1H-imidazol-4-yl]propan-2-ol]
≤ 0.1	Cc1cc(Nc2nccc(C(F)(F)F)n2)cc(-n2cnc(C(C)(O)CO)c2)c1 (racemic) [Example 113, (rac)-2-[1-(3-Methyl-5-{[4-(trifluoromethyl)pyrimidin-2-yl]amino}phenyl)-1H-imidazol-4-yl]propane-1,2-diol]
≤ 0.1	Cc1cc(Nc2cc(C(F)(F)F)ccn2)nc(-n2cnc([C@]3(O)CC[C@H](OC(=O)c4ccccc4)CC3)c2)c1 [Example 63, trans-4-hydroxy-4-[1-(4-methyl-6-{[4-(trifluoromethyl)pyridin-2-yl]amino}pyridin-2-yl)-1H-imidazol-4-yl]cyclohexyl benzoate]
≤ 0.1	Cc1cc(Nc2nccc(C(F)(F)F)n2)cc(-n2cc(C(=O)O)nc2C)c1 [Example 67, 2-Methyl-1-(3-methyl-5-{[4-(trifluoromethyl)pyrimidin-2-yl]amino}phenyl)-1H-imidazole-4-carboxylic acid]

same assay, conditions: ATP 25 μM, 10-dose titration, read-out: rhSYK IC50

IC50 [µM]	Structure (SMILES)
0.00138	Cc1cc(Nc2cc(C3CC3)ccn2)nc(-n2cnc([C@]3(O)CC[C@@H](O)CC3)c2)c1 [Example 45, cis-1-(1-{6-[(4-cyclopropylpyridin-2-yl)amino]-4-methylpyridin-2-yl}-1H-imidazol-4-yl)cyclohexane-1,4-diol]
0.015	Cc1cc(Nc2nccc(C)n2)cc(-n2cnc(C(C)(O)[C@H]3CC[C@H](C(=O)O)CC3)c2)c1 (relative stereo) [Example 9, trans-4-[1-hydroxy-1-(1-{3-methyl-5-[(4-methyl-pyrimidin-2-yl)amino]-phenyl}-1H-imidazol-4-yl)ethyl]cyclohexane-carboxylic acid]
0.0012	Cc1cc(Nc2nccc(C(F)(F)F)n2)cc(-n2cnc([C@H]3CC[C@H](C(=O)O)CC3)c2)c1 [2 (trans), Trans-4-[1-(3-methyl-5-{[4-(trifluoromethyl)pyrimidin-2-yl]amino}phenyl)-1H-imidazol-4-yl]cyclohexanecarboxylic acid]
0.0061	CNC(=O)[C@H]1CC[C@](O)(c2cn(-c3cc(C)cc(Nc4nccc(C(F)(F)F)n4)c3)cn2)CC1 [Example 1, Cis-4-hydroxy-N-methyl-4-[1-(3-methyl-5-{[4-(trifluoromethyl)pyrimidin-2-yl]amino}phenyl)-1H-imidazol-4-yl]cyclohexanecarboxamide]
0.00164	Cc1cc(Nc2nccc(C(F)(F)F)n2)cc(-n2cnc([C@]3(O)CC[C@@H](CC(=O)O)CC3)c2)c1 [Example 16, {cis-4-hydroxy-4-[1-(3-methyl-5-{[4-(trifluoromethyl)pyrimidin-2-yl]amino}phenyl)-1H-imidazol-4-yl]-cyclohexyl}acetic acid]
